Data on nine compounds can be found in PubChem BioAssay AID588404 (Broad Institute, 2011).

Molecules are shown by their SMILES. Inconclusive results are not listed. Calls of active or inactive are those of the source.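 Rule for the calls: active = every replicate run active, meaning lowered signal with potency within ten times the top valid dose; inconclusive = runs neither all active nor all inactive; inactive = all replicate runs inactive, including opposite-direction effects.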 A value given as a limit tells only on which side of the number the result lay.

System in one experiment: not listed separately
Description: growth inhibition of HsHsp90-dependent yeast, dose response, counter-screen for P. falciparum Hsp90 inhibitor project, plate reader, dry powder samples (AID 588404). The note with it: S. cerevisiae expressing HsHsp90, growth, BacTiter-Glo 48 h; at 150 µM (top of the series). (A counterscreen serves to expose hits that act by an unwanted route or on another target.)
With `O=C1C(Cl)=C(NCCc2ccccc2)C(=O)c2ccccc21`, the activity change, negative = inhibition was 20.9% (inactive). On to `COc1ccc2c(c1)[nH]c1c(C)nccc12`, for which the activity change, negative = inhibition was 9.79% (inactive).

A further experiment relates to S. cerevisiae expressing HsHsp90, growth, BacTiter-Glo 48 h. Described as above.
Conditions: not given
Take `O=C1C(Cl)=C(Oc2ccccc2)C(=O)c2ccccc21`: the AC50 (as a rule, the concentration at which the activity in the assay is half-maximal) is less than 2.35 µM.

As to `O=S(=O)(NC1CCCCCC1)c1ccc(Br)s1`, the AC50 was 6.82 µM.

As to `O=S(=O)(/C=C/c1ccccc1)NC1CCCCCCC1`, the AC50 was 19.8 µM. On the same count and under the same terms, for `CCOc1cc(S(=O)(=O)NC2CCCCCC2)ccc1F` the value was 26.6 µM; for `O=C(O)/C=C/c1cn(-c2ccccc2)nc1-c1cc2ccccc2o1`, 9.22 µM.

Turning to `O=S(=O)(NC1CC2CCC1C2)c1ccc(Cl)cc1` (centres undefined), the AC50 was 7.89 µM. Same read-out and setting: for `CCN(CC)c1ccc(/C=C2/SC(=O)N(C(C)C)C2=O)o1` the value was 12.3 µM.
